Read-outs that look alike come from different tables or passages of the source.
Assays:
[1] = test system: Huh7 cells transiently transfected with pcDNAFIXwt; test: Effects of protein degradation inhibitors on the intracellular level of FIXwt (ELISA on lysates); assay type: cell-based, human; conditions: for Intracellular FIX level (mean ± SE): 6 h treatment, 36 h after transfection, % relative to nontreated cell lysates, NH4Cl 50 mM/l, beta-lactone 10 μM/l, brefeldin A 10 μg/ml
Description: Huh7 cells (1×10^6 cells/dish) were transiently transfected at 80% confluence in 60 mm culture dishes. Thirty-six hours after transfection, the cells were incubated in FBS-free medium containing 10 μM/l of clasto-lactacystin β-lactone (Calbiochem, France Biochem, Meudon, France), 50 mM/l of ammonium chloride, or 10 μg/ml of brefeldin A (Sigma Aldrich). The medium was renewed every 2 hours.
The cell lysates were harvested 6 h later and prepared in 120 μl of cold lysis buffer. The FIX antigen concentration was quantified on the lysates by means of an ELISA assay. The results are expressed as percentage of values obtained relative to the nontreated control lysates. The comparisons were carried out by application of Fisher's test using the Stat View® software.
Thirty-six hours after transfection, the inhibitors were added to the culture medium and left for 6 h. The intracellular FIX concentrations were measured after treatment by means of an ELISA assay (the values are expressed as % of FIX relative to the values obtained in the nontreated cell lysates). The results are brought together in table 1 below and correspond to three independent transfections.

[2] = test system: factor IX-deficient plasma; conditions: FIX from HepG2 cells with viral vectors, published by Chen et al.; cited from earlier work
[3] = test system: factor IX-deficient plasma; test: Specific coagulation activity, one-step chronometric aPTT test, related back to Benefix (aPTT/ELISA); assay type: biochemical
Description: The term “biologically active FIX” is intended to mean a factor IX of which the specific coagulation activity is at least 100%. The recombinant FIX secreted into the culture medium of the present invention preferably has a specific coagulation activity of from 150 to 200%, preferably from 170 to 200%. The specific coagulation activity of the factor IX is determined by means of the technique termed chronometric time technique by measuring the partial thromboplastin time (PTT) or activated partial thromboplastin time (aPTT) which is a semi-overall test of blood coagulation which uses a coagulometer. The test used is detailed in the examples. In this test, Benefix® has a specific activity of 100%.
The specific coagulation activity of the factor IX is determined using the technique termed chronometric time technique by measuring the partial thromboplastin time (PTT) or activated partial thromboplastin time (aPTT) according to K. J. Smith et al., Blood, 72, 1269-1277 (1988), which is a semi-overall one-step blood coagulation test with an MDA II® or else Destiny Max coagulometer (Trinity Biotech, Dublin, Ireland). For this, fifty microliters of sample are diluted to 1/10th in imidazole buffer (Trinity Biotech, Bray, Ireland). […] The coagulation time is measured by means of a coagulometer using an MDA II® or else Destiny Max automated device (Trinity Biotech, Bray, Ireland). […]

[4] = test system: factor IX-deficient plasma; test: aPTT coagulation test under the conditions of Chen et al., related to standard plasma values, converted into ng/ml; assay type: biochemical; conditions: Huh7-CD4 clone
Description: A comparative study with respect to the works of Chen et al., 1997, was carried out. In these experiments, 1×10^6 cells of the Huh7-CD4 clone were seeded into 6-well plates. The following day, the medium was renewed and left in the presence of the producer cells for 24 hours. The FIX concentrations in this medium are determined using the Asserachrom IX:Ag ELISA kit (Diagnostica Stago). The activity of the FIX secreted into this medium is determined in a one-step coagulation test (aPTT) with an MDA II or else Destiny Max coagulometer (Trinity Biotech, Dublin, Ireland) as described above. The activity of the factor IX is determined from standard plasma values (Standard Human Plasma, Siemens Marburg, Germany, calibrated against a WHO—World Health Organization—standard) by means of a log-log curve. […] The specific activity of the FIX resulting from the Huh7-CD4 clone is calculated according to the ratio between the coagulant activity read for the sample, related back to the standard plasma values, and its FIX concentration (aPTT/ELISA).
Moreover, the specific activity of the FIX produced by the Huh7-CD4 line was determined according to the conditions determined by Chen et al. The ratio between the concentrations measured by the aPTT method (ng/ml) and measured by ELISA (ng/ml) was calculated on the basis of five different assays. […]

[5] = hemophilia B patients, versus plasma FIX (Mononine); cited from earlier work
[6] = versus plasma FIX (Mononine); cited from earlier work

Compound: C[C@H]1CCC/C=C/[C@@H]2C[C@H](O)C[C@H]2[C@H](O)/C=C/C(=O)O1 [Brefeldin A, brefeldin A]
- Intracellular FIX level (mean ± SE) [1]: 254.4% +/− 21.4
- increase of intracellular FIXwt level compared with that without inhibitor ([1]; after incubation with brefeldin A, p=0.005): 370%

Compound: FIX/GCF9SN-MPSV: FIX produced with a viral vector in the HepG2 hepatocyte cell line by Chen et al., 1997
- % specific activity aPTT/ELISA [2]: 73.5 +/− 19.7%
- aPTT [2]: 55 ± 15 ng/mL

Compound: FIXwt: recombinant human factor IX expressed in the human hepatocyte cell line Huh7 (transient, or stable clone Huh7-CD4) and secreted into the supernatant
- specific activity improved by a factor ([3]; transiently transfected Huh7 cells, versus Benefix): 1.7
- aPTT ([4]; 24 hours/10^6 cells, 5 μg/ml of FIX = 100%): 740 ± 59 ng/mL
- % specific activity aPTT/ELISA ([4]; related to standard plasma, five assays): 161 +/− 37%

Compound: FIX/GCNCF9: FIX produced with a viral vector in the HepG2 hepatocyte cell line by Chen et al., 1997
- % specific activity aPTT/ELISA [2]: 93.7 +/− 11%
- aPTT [2]: 120 ± 14 ng/mL

Compound: Benefix: marketed recombinant FIX (Wyeth) synthesized by CHO cells stably transfected with the FIX cDNA
- specific activity relative to that of Benefix ([3]; culture supernatants of transiently transfected Huh7 cells, 36 h after transfection, Benefix = 100%): 100%
- half-life in the blood stream compared with plasma FIX [5]: similar
- specific activity compared with FIX of plasma origin [6]: equivalent

Compound: CC(C)[C@H](O)[C@@]12NC(=O)[C@H](C)[C@@H]1OC2=O [Beta-lactone, clasto-lactacystin β-lactone]
- Intracellular FIX level (mean ± SE) [1]: 50.1% +/− 25.8
- Intracellular FIX level (mean ± SE) ([1]; listed as clasto-lactacystin β-lactone): no significant effect
